Measured values reported in paper PMC6412877 (Molecules, 2019).
Numbered stars: 1 amine (or outer) side, 2 acyl side, 3 side chain; on linkers, the order of the positions; unused ones are H or OH. Side chains are listed from the residue outwards. Ends that are not written are not given here. Peptide text beside a SMILES is read from it. * marks the point of attachment. C18 diacid = O=C(O)CCCCCCCCCCCCCCCCC(=O)*; γGlu = O=C(O)[C@H](CCC(=O)[*:2])N[*:1]; AEEA = NCCOCCOCC(=O)O

What was measured:
full-length GLP-1R = settings: ref [23],[24]; cited from earlier work
Source text: (§1) GLP-1R, is defined by seven transmembrane helices, an extracellular N terminus, and an intracellular C terminus, which is ligand binding via the extracellular and intracellular face, respectively, belongs to family B1 of the seven-transmembrane G protein-coupled receptors.

isolated ECD (GLP-1R) = settings: ref [23],[24]; cited from earlier work
Source text: as §1

GLP-1R ECD = GLP-1R ECD (Homo sapiens, UniProt P43220); assay: SPR binding affinity for GLP-1R extracellular domain (Biacore 8K); settings: Table 1, peptides 01-12
Sequence of GLP-1R ECD (P43220 24-139 limits assumed): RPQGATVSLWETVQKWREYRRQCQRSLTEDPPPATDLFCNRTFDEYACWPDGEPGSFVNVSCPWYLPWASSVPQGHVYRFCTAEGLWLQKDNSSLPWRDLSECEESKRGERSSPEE
Method: Surface Plasmon Resonance (SPR) measurements were performed with Biacore 8K (GE Health, Boston, MA, USA) for evaluating the associating affinity peptides for GLP1R ECD. Experimental details were carried out according to the Biacore 8K user’s manual.

Human GLP-1R = Human GLP-1R (Homo sapiens, UniProt P43220); assay: In vitro GLP-1R activation, human receptor; type: cell-based; settings: mean ± SD
Sequence of Human GLP-1R (P43220 24-463): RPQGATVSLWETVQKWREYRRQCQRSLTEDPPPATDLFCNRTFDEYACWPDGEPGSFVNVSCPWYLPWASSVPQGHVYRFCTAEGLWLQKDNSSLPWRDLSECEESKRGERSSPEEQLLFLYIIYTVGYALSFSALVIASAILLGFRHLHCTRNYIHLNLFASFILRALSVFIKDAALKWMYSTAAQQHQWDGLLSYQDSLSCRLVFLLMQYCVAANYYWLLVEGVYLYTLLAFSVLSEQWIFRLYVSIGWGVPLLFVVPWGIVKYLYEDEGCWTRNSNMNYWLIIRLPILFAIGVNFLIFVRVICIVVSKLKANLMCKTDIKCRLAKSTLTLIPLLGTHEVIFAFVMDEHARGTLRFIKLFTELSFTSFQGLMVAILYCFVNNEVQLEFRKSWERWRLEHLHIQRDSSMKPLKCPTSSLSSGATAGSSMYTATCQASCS

Mouse GLP-1R = molecular target: T1, Mouse GLP-1R (Mus musculus, UniProt O35659); assay: In vitro GLP-1R activation, mouse receptor; type: cell-based; settings: mean ± SD
T1 sequence (O35659 22-463): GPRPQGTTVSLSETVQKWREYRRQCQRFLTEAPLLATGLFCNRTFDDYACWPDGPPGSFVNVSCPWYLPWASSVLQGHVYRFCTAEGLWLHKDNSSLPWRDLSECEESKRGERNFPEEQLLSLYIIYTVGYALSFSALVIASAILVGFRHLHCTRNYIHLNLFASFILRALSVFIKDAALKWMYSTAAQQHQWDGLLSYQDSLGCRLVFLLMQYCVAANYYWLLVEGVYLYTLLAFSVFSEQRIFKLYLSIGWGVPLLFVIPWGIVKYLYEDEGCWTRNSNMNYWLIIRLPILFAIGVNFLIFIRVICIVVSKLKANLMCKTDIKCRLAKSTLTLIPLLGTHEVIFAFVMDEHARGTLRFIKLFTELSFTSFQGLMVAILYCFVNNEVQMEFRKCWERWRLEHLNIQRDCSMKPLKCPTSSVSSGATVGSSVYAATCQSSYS

[1] = test system: diet-induced obesity (DIO) mice; assay: Oral glucose tolerance test (glucoregulatory and insulin secretion assay) in DIO mice; type: in vivo; settings: male DIO mice, n = 6
Method: Half hour after single dose injection of different samples, the mice were administrated with glucose (2.0 g/kg), and then the blood glucose and insulin levels were detected before and at 15, 30, 45, 60 and 120 min by the ELISA kit (Merck).

DIO mice [2] = assay: Hypoglycemic duration test in non-fasted DIO mice; type: in vivo; settings: male DIO mice, not fasted, 25 nmol/kg single s.c., n = 6
Method: The antihyperglycemic efficacy of PEP20 was investigated in male DIO mice. The BGLs of PEP20 group decreased rapidly to the normoglycemic state (<15 mmol/L) in 1 h after the administration of 25 nmol/kg. […] BGLs were detected using a one-touch blood glucose meter. Glucose-lowering duration under 8.35 mmol/L BGL was also checked

DIO mice [3] = assay: Chronic in vivo study, 4 weeks, DIO mice; settings: 25 nmol/kg s.c. once daily for 4 weeks
Method: To further examine the therapeutic potential of PEP20, chronic in vivo studies were performed by a daily subcutaneous (s.c.) injection of PEP20 (25 nmol/kg) in DIO mice for 4 weeks. […] Body weight, food intake, and water consumption were measured daily. DIO mice were subjected to OGTT at week 0 and at week 4 to evaluate the advance of diabetic statuses. HbA1c were measured after the treatment using an AU680 automatic biochemical analyzer (Beckman Coulter, Fullerton, […]).

For `CC[C@H](C)[C@H](NC(=O)[C@H](Cc1ccccc1)NC(=O)[C@H](CCC(=O)O)NC(=O)[C@H](CCCCN)NC(=O)[C@H](C)NC(=O)[C@H](C)NC(=O)[C@H](CCC(N)=O)NC(=O)CNC(=O)[C@H](CCC(=O)O)NC(=O)[C@H](CC(C)C)NC(=O)[C@H](Cc1ccc(O)cc1)NC(=O)[C@H](CO)NC(=O)[C@H](CO)NC(=O)[C@@H](NC(=O)[C@H](CC(=O)O)NC(=O)[C@H](CO)NC(=O)[C@@H](NC(=O)[C@H](Cc1ccccc1)NC(=O)[C@@H](NC(=O)CNC(=O)[C@H](CCC(=O)O)NC(=O)[C@H](C)NC(=O)[C@@H](N)Cc1c[nH]cn1)[C@@H](C)O)[C@@H](C)O)C(C)C)C(=O)N[C@@H](C)C(=O)N[C@@H](Cc1c[nH]c2ccccc12)C(=O)N[C@@H](CC(C)C)C(=O)N[C@H](C(=O)N[C@@H](CCCCN)C(=O)NCC(=O)N[C@@H](CCCNC(=N)N)C(N)=O)C(C)C` [GLP-1, Glucagon-like peptide-1], the IC50 (full-length GLP-1R) is given as ~1 nM and the IC50 (isolated ECD (GLP-1R)) is given as ~100 nM.
With `CC(C)C[C@H](NC(=O)[C@H](Cc1ccc(O)cc1)NC(=O)[C@H](C)NC(=O)[C@H](CO)NC(=O)[C@@H]1CCCN1C(=O)[C@H](CO)NC(=O)[C@H](CO)NC(=O)[C@H](Cc1ccc(O)cc1)NC(=O)[C@H](Cc1ccccc1)NC(=O)[C@@H](N)Cc1ccccc1)C(=O)N[C@@H](CCC(=O)O)C(=O)N[C@H](C(=O)O)[C@@H](C)O` [PEP01] the Kd (GLP-1R ECD) was 740 nM.
`CC(C)C[C@H](NC(=O)[C@H](Cc1ccc(O)cc1)NC(=O)[C@H](CO)NC(=O)[C@H](CO)NC(=O)[C@@H](NC(=O)CNC(=O)[C@H](CCC(=O)O)NC(=O)[C@H](CO)NC(=O)[C@@H](NC(=O)[C@@H](N)Cc1ccccc1)[C@@H](C)O)[C@@H](C)O)C(=O)N[C@@H](CCC(=O)O)C(=O)N[C@H](C(=O)O)[C@@H](C)O` [PEP04] showed a Kd (GLP-1R ECD) of 3990 nM.
For `CC[C@H](C)[C@H](NC(=O)[C@H](Cc1ccccc1)NC(=O)[C@@H](N)CCC(=O)O)C(=O)N[C@@H](C)C(=O)N[C@H](C(=O)N[C@@H](C)C(=O)N[C@@H](Cc1c[nH]c2ccccc12)C(=O)N[C@@H](CC(C)C)C(=O)N[C@H](C(=O)N[C@@H](CCCCN)C(=O)N[C@@H](CCC(N)=O)C(=O)N[C@H](C(=O)O)[C@@H](C)O)C(C)C)[C@@H](C)O` [PEP06], the Kd (GLP-1R ECD) was 2590 nM.
`CC(C)C[C@H](NC(=O)[C@H](CCCCN)NC(=O)[C@H](C)NC(=O)[C@H](CO)NC(=O)[C@@H]1CCCN1C(=O)[C@H](CO)NC(=O)[C@H](CO)NC(=O)[C@H](Cc1ccc(O)cc1)NC(=O)[C@H](Cc1ccccc1)NC(=O)[C@@H](N)Cc1ccccc1)C(=O)N[C@@H](CCC(=O)O)C(=O)N[C@H](C(=O)NCC(=O)NCC(=O)N1CCC[C@H]1C(=O)N[C@@H](CO)C(=O)N[C@@H](CO)C(=O)NCC(=O)N[C@@H](C)C(=O)N1CCC[C@H]1C(=O)N1CCC[C@H]1C(=O)N1CCC[C@H]1C(=O)N[C@@H](CO)C(N)=O)[C@@H](C)O` [PEP13] showed an EC50 (Human GLP-1R) of 0.064 ± 0.022 nM, an Emax (Human GLP-1R) of 96 ± 4.1% and an EC50 (Mouse GLP-1R) of 0.051 ± 0.009 nM. For the same molecule, the Emax (Mouse GLP-1R) was 110 ± 9.4%.
For `C[C@H](NC(=O)[C@H](CO)NC(=O)[C@@H]1CCCN1C(=O)[C@H](CO)NC(=O)[C@H](CO)NC(=O)[C@H](Cc1ccc(O)cc1)NC(=O)[C@H](Cc1ccccc1)NC(=O)[C@@H](N)Cc1ccccc1)C(=O)N[C@@H](Cc1ccc(O)cc1)C(=O)N[C@@H](CCCCN)C(=O)N[C@@H](CCC(=O)O)C(=O)N[C@H](C(=O)NCC(=O)NCC(=O)N1CCC[C@H]1C(=O)N[C@@H](CO)C(=O)N[C@@H](CO)C(=O)NCC(=O)N[C@@H](C)C(=O)N1CCC[C@H]1C(=O)N1CCC[C@H]1C(=O)N1CCC[C@H]1C(=O)N[C@@H](CO)C(N)=O)[C@@H](C)O` [PEP14], the Emax (Human GLP-1R) was 105 ± 9.2% and the Emax (Mouse GLP-1R) was 150 ± 10.9%.
In the case of `CC(C)C[C@H](NC(=O)[C@H](CCCCNC(=O)COCCOCCNC(=O)COCCOCCNC(=O)CC[C@H](NC(=O)CCCCCCCCCCCCCCCCC(=O)O)C(=O)O)NC(=O)[C@H](C)NC(=O)[C@H](CO)NC(=O)[C@@H]1CCCN1C(=O)[C@H](CO)NC(=O)[C@H](CO)NC(=O)[C@H](Cc1ccc(O)cc1)NC(=O)[C@H](Cc1ccccc1)NC(=O)[C@@H](N)Cc1ccccc1)C(=O)N[C@@H](CCC(=O)O)C(=O)N[C@H](C(=O)NCC(=O)NCC(=O)N1CCC[C@H]1C(=O)N[C@@H](CO)C(=O)N[C@@H](CO)C(=O)NCC(=O)N[C@@H](C)C(=O)N1CCC[C@H]1C(=O)N1CCC[C@H]1C(=O)N1CCC[C@H]1C(=O)N[C@@H](CO)C(=O)O)[C@@H](C)O` [PEP17] (H-FFYSSPSAK([AEEA-AEEA-γGlu-C18 diacid])LETGGPSSGAPPPS-OH; N-terminus and C-terminus assumed), the Emax (Human GLP-1R) is reported as 79 ± 6.4% and the Emax (Mouse GLP-1R) is reported as 68 ± 5.9%.
Molecule `C[C@H](NC(=O)[C@H](CO)NC(=O)[C@@H]1CCCN1C(=O)[C@H](CO)NC(=O)[C@H](CO)NC(=O)[C@H](Cc1ccc(O)cc1)NC(=O)[C@H](Cc1ccccc1)NC(=O)[C@@H](N)Cc1ccccc1)C(=O)N[C@@H](Cc1ccc(O)cc1)C(=O)N[C@@H](CCCCNC(=O)COCCOCCNC(=O)COCCOCCNC(=O)CC[C@H](NC(=O)CCCCCCCCCCCCCCCCC(=O)O)C(=O)O)C(=O)N[C@@H](CCC(=O)O)C(=O)N[C@H](C(=O)NCC(=O)NCC(=O)N1CCC[C@H]1C(=O)N[C@@H](CO)C(=O)N[C@@H](CO)C(=O)NCC(=O)N[C@@H](C)C(=O)N1CCC[C@H]1C(=O)N1CCC[C@H]1C(=O)N1CCC[C@H]1C(=O)N[C@@H](CO)C(=O)O)[C@@H](C)O` [PEP18] has an Emax (Human GLP-1R) of 78 ± 6.4% and an Emax (Mouse GLP-1R) of 78 ± 3.5%.
Work on `CC(C)C[C@H](NC(=O)[C@H](Cc1ccc(O)cc1)NC(=O)[C@H](C)NC(=O)[C@H](CO)NC(=O)[C@@H]1CCCN1C(=O)[C@H](CO)NC(=O)[C@H](CO)NC(=O)[C@H](Cc1ccc(O)cc1)NC(=O)[C@H](Cc1ccccc1)NC(=O)[C@@H](N)Cc1ccccc1)C(=O)N[C@@H](CCCCNC(=O)COCCOCCNC(=O)COCCOCCNC(=O)CC[C@H](NC(=O)CCCCCCCCCCCCCCCCC(=O)O)C(=O)O)C(=O)N[C@H](C(=O)NCC(=O)NCC(=O)N1CCC[C@H]1C(=O)N[C@@H](CO)C(=O)N[C@@H](CO)C(=O)NCC(=O)N[C@@H](C)C(=O)N1CCC[C@H]1C(=O)N1CCC[C@H]1C(=O)N1CCC[C@H]1C(=O)N[C@@H](CO)C(=O)O)[C@@H](C)O` [PEP19] (H-FFYSSPSAYLK([AEEA-AEEA-γGlu-C18 diacid])TGGPSSGAPPPS-OH; N-terminus and C-terminus assumed) yielded an Emax (Human GLP-1R) of 89 ± 6.2% and an Emax (Mouse GLP-1R) of 83 ± 3.2%.
With `CC(C)C[C@H](NC(=O)[C@H](Cc1ccc(O)cc1)NC(=O)[C@H](C)NC(=O)[C@H](CO)NC(=O)[C@@H]1CCCN1C(=O)[C@H](CO)NC(=O)[C@H](CO)NC(=O)[C@H](Cc1ccc(O)cc1)NC(=O)[C@H](Cc1ccccc1)NC(=O)[C@@H](N)Cc1ccccc1)C(=O)N[C@@H](CCC(=O)O)C(=O)N[C@@H](CCCCNC(=O)COCCOCCNC(=O)COCCOCCNC(=O)CC[C@H](NC(=O)CCCCCCCCCCCCCCCCC(=O)O)C(=O)O)C(=O)NCC(=O)NCC(=O)N1CCC[C@H]1C(=O)N[C@@H](CO)C(=O)N[C@@H](CO)C(=O)NCC(=O)N[C@@H](C)C(=O)N1CCC[C@H]1C(=O)N1CCC[C@H]1C(=O)N1CCC[C@H]1C(=O)N[C@@H](CO)C(=O)O` [PEP20] (H-FFYSSPSAYLEK([AEEA-AEEA-γGlu-C18 diacid])GGPSSGAPPPS-OH; N-terminus and C-terminus assumed) the Emax (Human GLP-1R) was 98 ± 8.1%, the Emax (Mouse GLP-1R) was 99 ± 7.2% and the “plasma insulin concentrations from 15 to 60 min versus control” value ([1]; OGTT, 25 nmol/kg s.c., ELISA) was “significantly greater than those of the control group”. The “glucose-lowering percentage compared with vehicle control group” value ([1]; OGTT, 25 nmol/kg single s.c., glucose 2.0 g/kg) was 60.2%, the “blood glucose level (BGL) half an hour after glucose challenge” value ([1]; 25 nmol/kg single s.c., oral glucose 2.0 g/kg, vehicle 23.6 ± 3.1) was 10.1 mmol/L and the “duration of glucose-lowering effect” value (DIO mice [2]; followed for 96 h) was “at least 96 h”. The “lowering of glucose level for 0–96 h (AUC0–96 h) compared with vehicle group” value (DIO mice [2]) was 63.8%, the “time to normoglycemic state (<15 mmol/L) after administration” value (DIO mice [2]) was ≤ 1 h and the body weight gain (DIO mice [3]; n = 6) was “effectively suppressed”. For the same molecule, the “decrease of OGTT AUC at 4 weeks compared with week 0” value (DIO mice [3]; n = 6) was 22.1%, the food intake (DIO mice [3]; n = 6) was “effectively suppressed” and the “HbA1c versus control group” value (DIO mice [3]; p < 0.001, n = 6) was “reduction”.
FFYSSPSAYLEKGGPSSGAPPPS [PEP16] gave an Emax (Human GLP-1R) of 92 ± 7.1% and an Emax (Mouse GLP-1R) of 93 ± 9.3%.
FFYSSPSAYLKTGGPSSGAPPPS [PEP15] showed an Emax (Human GLP-1R) of 78 ± 9.1% and an Emax (Mouse GLP-1R) of 73 ± 6.4%.
For KQYSSPTAWLVG [PEP03], the Kd (GLP-1R ECD) was 1750 nM.
